According to patent publication US20260184692A1, “HETEROCYCLIC COMPOUNDS, PREPARATION METHODS AND USES THEREOF” (InventisBio Co., Ltd., priority 2022, published 2026):

Tested on: OVCAR3 Cells
Test: OVCAR3 Cell Viability Assay (CellTiter-Glo)
Type: cell-based
Details: Homo sapiens, OVCAR-3, 144 h, 6 days incubation, read-out: OVCAR3 CTG IC50
Description: OVCAR3 Cells (ATCC, Cat #HTB-161) were seeded at a density of 2000 cells/well in a 96-well clear bottom plate (Greiner, Cat #655098) in 100 μL of complete media (RPMI1640+20% FBS+0.01 mg/mL human insulin). One hundred microliter of complete media was added into the blank well (column 1) for low control. Cells were allowed to adhere to the plate overnight in the incubator at 37° C., 5% CO2. On the following day, 0.5 μL of serially-diluted compounds were added to the cells (columns 2-10) and incubated for 6 days at 37 C, 5% CO2 (final 0.5% DMSO concentration); 0.5 μL of DMSO solution was added into the wells (column 11) for high control. Cell viability was detected according to the CellTiter-Glo Luminescent Cell Viability Assay Kit (Promega, Cat #G7573). Luminescence was recorded on the Tecan Spark plate reader. Inhibition rate (IR) of the tested compounds was determined by the following formula: IR (%)=(1−(RLUcompound−RLUlow control)/(RLUhigh control−RLUlow control))×100%. The IC50 value was calculated using the non-linear regression equation: Y=Bottom+(Top−Bottom)/(1+10^((Log IC50−X)×HillSlope)), where X is Log of compound concentration, Y is percent inhibition (IR (%)), Top and Bottom are plateaus in same units as Y.

## CC(C)[C@H](N)C(=O)OCCS(=O)(=O)Nc1ccc2c(c1)C1(CCC3(CC3)CC1)CN(c1ccc(C#N)c(N3CCC(F)(F)CC3)n1)C2=O [Compound 132]
  IC50: < 200 nM

## COc1ccc(N2CC3(CCC4(CC4)CC3)c3cc(NS(=O)(=O)CCOC(=O)[C@@H](N)C(C)C)ccc3C2=O)nc1N1CCC(F)(F)CC1 [Compound 134]
  IC50: < 200 nM

## CC(C)[C@H](N)C(=O)OCCS(=O)(=O)Nc1ccc2c(c1)C1(CCC3(CC3)CC1)CN(c1ccnc(NC3CC(F)(F)C3)n1)C2=O [Compound 135]
  IC50: < 200 nM

## O=C1c2ccc(NS(=O)(=O)CCO)cc2C2(CCC3(CC3)CC2)CN1c1ccc(O)c(N2CCC(F)(F)CC2)n1 [Compound 137]
  IC50: < 200 nM

## NC(=O)c1ccc(N2CC3(CCC4(CC4)CC3)c3cc(NS(=O)(=O)CCO)ccc3C2=O)nc1N1CCC(F)(F)CC1 [Compound 139]
  IC50: < 200 nM

## Cn1cc(-c2ccc(N3CC4(CCC5(CC5)CC4)c4cc(NS(=O)(=O)CCO)ccc4C3=O)nc2N2CCC(F)(F)CC2)cn1 [Compound 141]
  IC50: < 200 nM

## Cn1ccc(-c2ccc(N3CC4(CCC5(CC5)CC4)c4cc(NS(=O)(=O)CCO)ccc4C3=O)nc2N2CCC(F)(F)CC2)n1 [Compound 142]
  IC50: < 200 nM

## CCNC(=O)c1ccc(N2CC3(CCC4(CC4)CC3)c3cc(NS(=O)(=O)CCO)ccc3C2=O)nc1N1CCC(F)(F)CC1 [Compound 144]
  IC50: < 200 nM

## CCS(=O)(=O)Nc1ccc2c(c1)C1(CCC3(CC3)CC1)CN(c1ccnc(NC3CC(F)(F)C3)n1)C2=O [Compound 145]
  IC50: < 200 nM

## COc1ncc(N2CC3(CCC4(CC4)CC3)c3cc(NS(=O)(=O)CCO)ccc3C2=O)nc1N1CCC(F)(F)CC1 [Compound 146]
  IC50: < 200 nM

## CN(C)CCS(=O)(=O)Nc1ccc2c(c1)C1(CCC3(CC3)CC1)CN(c1ccc(C#N)c(N3CCC(F)(F)CC3)n1)C2=O [Compound 147]
  IC50: 200 to 2000 nM

## COCCS(=O)(=O)Nc1ccc2c(c1)C1(CCC3(CC3)CC1)CN(c1ccnc(NC3CC(F)(F)C3)n1)C2=O [Compound 148]
  IC50: 200 to 2000 nM

## O=C1c2ccc(NS(=O)(=O)CCO)cc2C2(CCC3(CC3)CC2)CN1c1ccc(C(F)F)c(N2CCC(F)(F)CC2)n1 [Compound 149]
  IC50: < 200 nM

## CCc1ccc(N2CC3(CCC4(CC4)CC3)c3cc(NS(=O)(=O)CCO)ccc3C2=O)nc1N1CCC(F)(F)CC1 [Compound 150]
  IC50: < 200 nM

## O=C1c2ccc(NS(=O)(=O)CCO)cc2C2(CCC3(CC3)CC2)CN1c1ccc(C2CC2)c(N2CCC(F)(F)CC2)n1 [Compound 151]
  IC50: < 200 nM

## CN(C)c1ccc(N2CC3(CCC4(CC4)CC3)c3cc(NS(=O)(=O)CCO)ccc3C2=O)nc1N1CCC(F)(F)CC1 [Compound 152]
  IC50: < 200 nM

## COc1ccc(N2CC3(CCC4(CC4)CC3)c3cc(NS(=O)(=O)CCN(C)C)ccc3C2=O)nc1N1CCC(F)(F)CC1 [Compound 153]
  IC50: 200 to 2000 nM

## O=C1c2ccc(NS(=O)(=O)CCO)cc2C2(CCC3(CC3)CC2)CN1c1ccc(C(F)(F)F)c(N2CCC(F)(F)CC2)n1 [Compound 154]
  IC50: < 200 nM

## O=C1c2ccc(NS(=O)(=O)CCO)cc2C2(CCC3(CC3)CC2)CN1c1ccc(OC(F)F)c(N2CCC(F)(F)CC2)n1 [Compound 155]
  IC50: < 200 nM

## O=C1c2ccc(NS(=O)(=O)C(F)(F)F)cc2C2(CCC3(CC3)CC2)CN1c1ccnc(NC2CC(F)(F)C2)n1 [Compound 156]
  IC50: > 2000 nM

## N#Cc1ncc(N2CC3(CCC4(CC4)CC3)c3cc(NS(=O)(=O)CCO)ccc3C2=O)nc1N1CCC(F)(F)CC1 [Compound 157]
  IC50: < 200 nM

## N#Cc1ccc(N2CC3(CCC4(CC4)CC3)c3cc(NS(=O)(=O)CC(F)(F)F)ccc3C2=O)nc1N1CCC(F)(F)CC1 [Compound 158]
  IC50: < 200 nM

## N#Cc1ccc(N2CC3(CCC4(CC4)CC3)c3cc(NS(=O)(=O)C(F)(F)F)ccc3C2=O)nc1N1CCC(F)(F)CC1 [Compound 159]
  IC50: 200 to 2000 nM

## Cc1ncc(-c2ccc(N3CC4(CCC5(CC5)CC4)c4cc(NS(=O)(=O)CCO)ccc4C3=O)nc2N2CCC(F)(F)CC2)cn1 [Compound 160]
  IC50: < 200 nM

## Cc1ccc(-c2ccc(N3CC4(CCC5(CC5)CC4)c4cc(NS(=O)(=O)CCO)ccc4C3=O)nc2N2CCC(F)(F)CC2)cn1 [Compound 161]
  IC50: < 200 nM

## CCNC(=O)c1ccc(N2CC3(CCC4(CC4)CC3)c3cc(NS(=O)(=O)CCO)ccc3C2=O)nc1NC1CC(F)(F)C1 [Compound 162]
  IC50: < 200 nM

## Cn1cc(-c2ccc(N3CC4(CCC5(CC5)CC4)c4cc(NS(=O)(=O)CCO)ccc4C3=O)nc2NC2CC(F)(F)C2)cn1 [Compound 163]
  IC50: < 200 nM

## Cc1cc(-c2ccc(N3CC4(CCC5(CC5)CC4)c4cc(NS(=O)(=O)CCO)ccc4C3=O)nc2N2CCC(F)(F)CC2)ccn1 [Compound 164]
  IC50: < 200 nM

## NC(=O)c1ncc(N2CC3(CCC4(CC4)CC3)c3cc(NS(=O)(=O)CCO)ccc3C2=O)nc1N1CCC(F)(F)CC1 [Compound 165]
  IC50: < 200 nM

## O=C1c2ccc(NS(=O)(=O)CC(F)(F)F)cc2C2(CCC3(CC3)CC2)CN1c1ccnc(NC2CC(F)(F)C2)n1 [Compound 166]
  IC50: > 2000 nM

## NC(=O)c1ccc(N2CC3(CCC4(CC4)CC3)c3cc(NS(=O)(=O)CCO)ccc3C2=O)nc1NC1CC(F)(F)C1 [Compound 167]
  IC50: < 200 nM

## Cn1cnc(-c2ccc(N3CC4(CCC5(CC5)CC4)c4cc(NS(=O)(=O)CCO)ccc4C3=O)nc2NC2CC(F)(F)C2)c1 [Compound 169]
  IC50: < 200 nM

## Cn1ccc(-c2ccc(N3CC4(CCC5(CC5)CC4)c4cc(NS(=O)(=O)CCO)ccc4C3=O)nc2NC2CC(F)(F)C2)n1 [Compound 170]
  IC50: 200 to 2000 nM

## CN1CCN(C(=O)c2ccc(N3CC4(CCC5(CC5)CC4)c4cc(NS(=O)(=O)CCO)ccc4C3=O)nc2N2CCC(F)(F)CC2)CC1 [Compound 172]
  IC50: 200 to 2000 nM

## Cc1nccc(-c2ccc(N3CC4(CCC5(CC5)CC4)c4cc(NS(=O)(=O)CCO)ccc4C3=O)nc2NC2CC(F)(F)C2)n1 [Compound 174]
  IC50: < 200 nM

## Cn1cnc(-c2ccc(N3CC4(CCC5(CC5)CC4)c4cc(NS(=O)(=O)CCO)ccc4C3=O)nc2N2CCC(F)(F)CC2)n1 [Compound 175]
  IC50: < 200 nM

## CN1CC=C(c2ccc(N3CC4(CCC5(CC5)CC4)c4cc(NS(=O)(=O)CCO)ccc4C3=O)nc2N2CCC(F)(F)CC2)CC1 [Compound 176]
  IC50: 200 to 2000 nM

## CN1CCN(c2ccc(N3CC4(CCC5(CC5)CC4)c4cc(NS(=O)(=O)CCO)ccc4C3=O)nc2N2CCC(F)(F)CC2)C(=O)C1 [Compound 178]
  IC50: < 200 nM

## CN1CCC(c2ccc(N3CC4(CCC5(CC5)CC4)c4cc(NS(=O)(=O)CCO)ccc4C3=O)nc2N2CCC(F)(F)CC2)CC1 [Compound 179]
  IC50: 200 to 2000 nM

## O=C1c2ccc(NS(=O)(=O)CCO)cc2C2(CCC3(CC3)CC2)CN1c1ccc(-c2cc[nH]n2)c(N2CCC(F)(F)CC2)n1 [Compound 180]
  IC50: < 200 nM
